Inhibition ratio data for one molecule are collected here from US7498323B2, “Spiro-piperidine compounds and medicinal use thereof” (Ono Pharmaceuticals Co., Ltd., priority 2003, dated 2009).

The target in the assay is Human CCR2 (Homo sapiens, UniProt P41597). The conditions noted are these: at 10 μM; human CCR2-expressing cells (THP-1); human MCP-1 30 nM; Ca2+ transient increase.
Human CCR2, sequence (P41597 1-360 isoform P41597-2): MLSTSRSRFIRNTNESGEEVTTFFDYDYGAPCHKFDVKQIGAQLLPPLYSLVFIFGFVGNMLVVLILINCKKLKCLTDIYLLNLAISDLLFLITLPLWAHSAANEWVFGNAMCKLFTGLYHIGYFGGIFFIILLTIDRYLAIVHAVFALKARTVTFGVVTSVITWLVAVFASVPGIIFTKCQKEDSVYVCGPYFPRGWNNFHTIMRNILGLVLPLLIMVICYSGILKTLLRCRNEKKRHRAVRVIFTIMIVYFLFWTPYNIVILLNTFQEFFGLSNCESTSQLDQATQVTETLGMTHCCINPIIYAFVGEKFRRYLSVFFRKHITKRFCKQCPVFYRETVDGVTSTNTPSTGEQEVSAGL

Description: (5) Inhibition test on the binding of MCP-1 to CCR2 (activity of MCP-1 to induce transient increase of Ca ion).
Then, 4-fold to 8-fold 1×Hanks/HEPES (20 mM; pH 7.4)/Probenecid (2.5 mM) was added thereto, followed by further incubation at 37° C. for 30 minutes under shading. After the cells were washed with 1×Hanks/HEPES (20 mM; pH 7.4)/Probenecid (2.5 mM) solution, the cells were suspended again by the same solution to give a density of 2.0×10^6 cells/ml and added to a 96-well plate at 100 μl/well. Each of the test compounds was added, and 3 minutes thereafter, a recombinant human MCP-1 (PeproTach) diluted with 1×Hanks/HEPES (20 mM; pH 7.4)/Probenecid (2.5 mM) was added thereto to a final concentration of 30 nM. Transient increase in the intracellular Ca^2+ concentration induced by the human MCP-1 was measured using a Ca^2+ detector for 96 well use (Hamamatsu Photonics), and inhibition ratio (%) of the test compound was calculated by the following calculation formula. Inhibition ratio=(Ec−Ea)/Ec×100 • Ec: measured value of Ca^2+ transient increase by MCP-1 • Ea: measured value of Ca^2+ transient increase by MCP-1 when a test compound was added.

Take `CCCN1C(=O)N(CCCNC(=O)OCc2ccccc2)CCC12CCN(CCc1ccccc1)CC2` [Example 37, phenylmethyl{3-[2-oxo-9-(2-phenylethyl)-1-propyl-1,3,9-triazaspiro[5.5]undeca-3-yl]propyl}carbamate]: the inhibition ratio is listed as ≥ 50%.
